The values that follow are results of earlier work, collected in US9265724B2, “Oral dosage form of tetrahydrocannabinol and a method of avoiding and/or suppressing hepatic first pass metabolism via targeted chylomicron/lipoprotein delivery” (priority 2005, dated 2016).

For data set [1] the following is noted: low aqueous solubility and high permeability.

Structures are written as SMILES.

For the compound `CCCCCc1cc(O)c2c(c1)OC(C)(C)[C@@H]1CCC(C)=C[C@@H]21` [Δ^9-THC, Δ^9-tetrahydrocannabinol], the absorbed (after a single oral dose) is given as 90-95%. The “continuation of appetite stimulant effect” value (after administration) was no less than 24 h. For the same compound, for the setting “after oral administration”, the “duration of action for psychoactive effects” value is 4 to 6 h and the peak effect was 2 to 4 h. Also, the “administered dose that reaches systemic circulation” value (oral) is 10-20%. Also, the maximal plasma levels entry (oral dosing of 20 mg in a sesame oil formulation) is reported as “around 10 ng/ml”. Besides, in data set [1], the “biopharmaceutical classification system (BCS) class” value is reported as “Class II”.
